# Measured values taken from US20030138388A1, “Peptides and the use thereof in darkening the skin” (priority 2001, published 2003).
# How the values were obtained:
# [1] = test system: keratinocyte-melanocyte co-cultures; assay: Induced pigmentation in keratinocyte-melanocyte co-cultures, DOPA staining and computerized image analysis; format: cell-based, Human
# Experimental: The peptides Peptide 1 and Peptide 2 and various pigments were tested, alone or in combination, with keratinocyte-melanocyte cultures for their effect on cell pigmentation, using DOPA staining and computerized image analysis. The pigments that were tested were the pigmented natural extract Hedychium spicatum extract sold as Kapur Kachali from Amsar Private Limited (Indore, India), copper chloride from Sigma (St. Louis, Mo.) and the water-soluble melanin derivatives Melasyn-100™ from San-mar laboratories, Inc. (Elmsford, N.Y.) and MelanZe™ from Zylepsis (Ashford, Kent, United Kingdom). The pigments were tested at concentrations ranging from 0.0001%(W/V) to 1%(W/V) and peptides were tested at 50 μM.
# The assay was conducted in the following manner. Human HaCaT keratinocytes (Boukamp P., et al., J Cell Biol 106, 3, 761-771 (1988)) were maintained in Dulbecco's Modified Eagle's Medium (DMEM) containing 10% fetal bovine serum (FBS), 4.5 mg/ml glucose, 2 mM L-glutamine, 50 U/ml penicillin and 50 μg/ml streptomycin (Life Technologies, Gaithersburg, Md.). Cells were maintained at <80% confluency in 5% CO2 (v/v) and were used in experimental procedures up to culture passage 15. Human primary melanocytes (Clonetics, San Diego, Calif. or Cascade Biologics, Portland, Oreg.) were maintained according to manufacturer's instructions. To establish keratinocyte-melanocyte co-cultures, 6×10^4 melanocytes were plated in each well of a 24 well plate and maintained according to manufacturer's instructions.
# Melanocytes were rinsed three times with melanocyte growth media without PMA and keratinocytes (6×10^4) were plated to establish the co-cultures in this media. Co-cultures were treated for three days with test peptides and pigments, and assayed for cell viability and pigment level on the forth day. Cell viability was assayed using alamarBlue™ (Acumed International, West Lake, Ohio) following manufacturer's instructions. No change in viability was observed following three daily treatments with all tested material. All in vitro experiments were performed in triplicates, and were repeated at least three times.
# Following three daily treatments, the co-cultures were briefly fixed (10% buffered formalin from Fisher Scientific, 15 minutes), washed three times with Phosphate-buffered saline (PBS, from Life Technologies) and stained with L-3,4-Dihydroxyphenylalanine (DOPA, from Sigma, St. Louis, Mo.) 0.1% in PBS, for 5 hours at 37° C., followed by two PBS washes and formalin (10%, overnight) fixation. DOPA is a substrate for tyrosinase, therefore an increase in staining represents increased tyrosinase activity and pigment production. DOPA-stained monolayers were used for image analysis. All images were obtained and analyzed with Image Pro Plus 3.0 software (Media Cybernetics, Silver Spring, Md.). Parameters measured were surface area of stained material within melanocyte and keratinocytes and the total surface area of the cells in the culture, and the relative pigmented area was calculated. A value of 100% was assigned to untreated controls, and values of treatment groups were normalized to their relevant controls. In all experiments there was no difference between PBS-treated cells and untreated controls. Data are presented with standard deviation (SigmaPlot® 5.0, SPSS Science, Chicago, Ill.).
# Forskolin (Sigma, St. Louis, Mo.), a known inducer of pigmentation, served as a positive control and a reference point. Forskolin was administered at 1% (W/V).
# [2] = test system: Dark skinned Yucatan microswine; assay: Induced pigmentation in vivo, F&M-stained histological skin sections scored for pigment deposition; design: key: −1: slight lightening; 0: No change; 1: Minimal increase in pigment deposition; 2: Increased pigment deposition; 3: Strong increase in pigment deposition, some increase in caps; 4: Strong increase in pigment deposition, strong increase in caps; conditions: topical twice a day, five days/week, eight or nine weeks, average of all sites of responsive swine
# Experimental: Compositions of the present invention were tested for their ability to induce in vivo pigmentation in skin cells in the following experiment. Dark skinned Yucatan microswine (Charles River, Portland, Me.) were housed in appropriately sized cages in an environmentally controlled room with a 12-hour light-12-hour dark photoperiod and supplied with food and water ad libitum. Animal care was based on the “Guide for the Care and Use of Laboratory Animals”, NIH Publication No. 85-23. Twenty μl of test peptides were applied topically, twice a day, five days/week, for eight or nine weeks, on the dorsum of the swine. Treatments of individual swine were always arranged in a head to tail order on one side, and in a tail to head order on the other side of the animal. Biopsies were taken using standard techniques.
# Sections from the skin biopsies were stained with Hematoxylin and Eosin (H&E), or with Fontana-Mason (F&M), using standard procedures (Sheenan DC, Hrapckak BB, eds., Theory and Practice of Histo-technology. p. 223, 277, The C. V. Mosby Co., St. Louis (1980)). F&M staining identifies silver nitrate reducing molecules. In skin, this non-specific stain identifies primarily melanin. At least three sections per biopsy were processed. […]
# F&M-stained histological skin sections were evaluated for the change in pigment deposition within the treated site. […]
# [3] = Table 1, 50 μM, three daily treatments, relative pigmented area after DOPA staining, control 0.184
# [4] = Table 1, 50 μM, three daily treatments, versus control
compound,measurement,setting,value
"[Cl][Cu][Cl] [CuCl2, copper chloride, reference compound]",Mean area,"[1]; Table 2, CuCl2 0.001% (w/v), control 0.029",0.063
same,% increase,"[1]; Table 2, CuCl2 0.001% (w/v), normalized to control",220%
"C=C[C@@]1(C)CC(=O)[C@]2(O)[C@@]3(C)[C@@H](O)CCC(C)(C)[C@@H]3[C@H](O)[C@H](OC(C)=O)[C@@]2(C)O1 [Forskolin, reference compound]",Score (pigment deposition),[2]; positive control at 1% (W/V),1
same,Mean area,"[1]; Table 2, Forskolin 1% (w/v), positive control, control 0.029",0.067
same,% increase,"[1]; Table 2, Forskolin 1% (w/v), positive control, normalized to control",231.0%
H2-Leu-Ile-Gly-Arg-Leu-NH2 (H-LIGRL-NH2) [Peptide 2],Mean area,[1]; [3],0.240
same,% increase,[1]; [4],30.8%
H2-Leu-Ile-Gly-Arg-NH2 (H-LIGR-NH2) [Peptide 1],Score (pigment deposition),[2]; peptide at 250 μM or 500 μM,2
same,Mean area,[1]; [3],0.270
same,% increase,[1]; [4],46.8%
same,% increase,"[1]; Table 2, Peptide 1 50 μM, normalized to control",279%
same,Mean area,"[1]; Table 2, Peptide 1 50 μM, three daily treatments, control 0.029",0.080
